64 compounds from patent US20100267712A1, “ISOINDOLINE COMPOUNDS FOR THE TREATMENT OF SPINAL MUSCULAR ATROPHY AND OTHER USES” (The United States of America, as represented by the …, priority 2007, published 2010) can be followed below.

The test deals with SMN2-linked luciferase-reporter gene construct. The experiment in a line: SMN Splice Reporter Assay (SMN2-linked luciferase reporter). It is filed as cell-based. As to conditions: for EC50: cervical carcinoma cell lines, SMN2 splice luciferase reporter; for Fold Increase: fold-increase of luciferase over baseline reading of transformed cells without any test compound. A digest of the protocol: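 Cervical carcinoma cells carrying an SMN2-luciferase splicing reporter, in-frame only with exon 7 inclusion, were treated with compound. Luciferase activity reported as fold increase over untreated transformed cells, with EC50 derived.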

Structures are written as SMILES.

As a reminder, the EC50 is the concentration giving half of the maximal effect. As to `COc1ccc2c(c1)C(=O)N(c1ccc3nccc(Cl)c3c1)C2` [Example 123013], the EC50 was 0.902 µM and the “Fold Increase” value is listed as 1.413. As to `CCCc1ccc2c(c1)C(=O)N(c1ccc3c(c1)cc(C)n3C)C2` [Example 123014], the EC50 turned out to be 0.323 µM and the “Fold Increase” value was 1.407. The like results for `Cc1ccc2c(c1)C(=O)N(c1ccc3c(c1)cc(C)n3C)C2` [Example 123015] were, in that order, 0.053 µM and 1.43. For `CCc1ccc2c(c1)C(=O)N(c1ccc3c(c1)cc(C)n3C)C2` [Example 123016] the same measures were 0.197 µM and 1.481. For `Cc1cc2cc(N3Cc4ccc(OC(F)F)cc4C3=O)ccc2n1C` [Example 123204] the same measures were 0.374 µM and 1.361. In the case of `COc1ccc2c(c1)C(=O)N(c1ccc3nccc(OC)c3c1)C2` [Example 123205], the “Fold Increase” value is 1.227. With `COc1ccc2c(c1)C(=O)N(c1ccc3nc(Cl)ccc3c1)C2` [Example 123206], the EC50 was determined as 0.119 µM and the “Fold Increase” value stood at 1.531. The like results for `CCOc1ccc2c(c1)C(=O)N(c1ccc3c(c1)cc(C)n3C)C2` [Example 123328] were, in that order, 0.444 µM and 1.316. For the compound `CCC(C)c1ccc2c(c1)C(=O)N(c1ccc3c(c1)cc(C)n3C)C2` (centres unmarked) [Example 123329], the EC50 is 0.569 µM and the “Fold Increase” value is listed as 1.327. `CCCCc1ccc2c(c1)C(=O)N(c1ccc3c(c1)cc(C)n3C)C2` [Example 123331]: the EC50 is 0.66 µM and the “Fold Increase” value amounted to 1.31. For `COc1ccc2c(c1)C(=O)N(c1ccc3nc(N(C)C)ccc3c1)C2` [Example 123332] the same measures were 0.207 µM and 1.272.

Regarding `COc1ccc2c(c1)C(=O)N(c1ccc3nc(OC)ccc3c1)C2` [Example 123333], the EC50 came out at 0.02 µM and the “Fold Increase” value was found to be 1.376. The like results for `Cc1cc2cc(N3Cc4ccc(CC(C)C)cc4C3=O)ccc2n1C` [Example 123439] were, in that order, 0.359 µM and 1.357.

`Cn1ccc2cc(N3Cc4ccc(N5CCOCC5)cc4C3=O)ccc21` [Example 123587]: the “Fold Increase” value came to 1.256. Same read-out and setting: as for `CN1CCN(c2ccc3c(c2)C(=O)N(c2ccc4c(ccn4C)c2)C3)CC1` [Example 123588], the figure is 1.183. Consider `COc1ccc2c(c1)C(=O)N(c1ccc3nccc(C)c3c1)C2` [Example 123589], for which the EC50 amounted to 0.078 µM and the “Fold Increase” value came out at 1.541. For `COc1ccc2c(c1)C(=O)N(c1ccc3sc(C)c(C)c3c1)C2` [Example 123590] the same measures were 0.128 µM and 1.405.

Take `COc1ccc2c(c1)C(=O)N(c1ccc3ccc(Cl)nc3c1)C2` [Example 123710]: a half-maximal effect (EC50) was put at 0.047 µM and the “Fold Increase” value is listed as 1.327. For `COc1ccc2c(c1)C(=O)N(c1ccc3c(Cl)ccnc3c1)C2` [Example 123711] the same measures were 1.58 µM and 1.262.

In the case of `COc1ccc2c(c1)C(=O)N(c1ccc3c(OC)ccnc3c1)C2` [Example 123712], the response was half-maximal at 0.147 µM (EC50) and the “Fold Increase” value was 1.38.

`COc1ccc2c(c1)C(=O)N(c1ccc3c(N(C)C)ccnc3c1)C2` [Example 123713]: the “Fold Increase” value amounted to 1.072. Turning to `CCCOc1ccc2c(c1)C(=O)N(c1ccc3c(c1)cc(C)n3C)C2` [Example 123715], the EC50 was determined as 0.145 µM and the “Fold Increase” value is recorded as 1.216. `COc1ccc2c(c1)C(=O)N(c1ccc3c(c1)cc(C(=O)N1CCCC1)n3C)C2` [Example 123935]: the “Fold Increase” value was determined as 1.124.

Consider `COc1ccc2c(c1)C(=O)N(c1ccc3ccc(OC)nc3c1)C2` [Example 123936], for which the EC50 came out at 0.784 µM and the “Fold Increase” value was 1.429. Turning to `COc1ccc2c(c1)C(=O)N(c1ccc3ccc(N(C)C)nc3c1)C2` [Example 123937], the “Fold Increase” value turned out to be 1.202. On the same count and under the same terms, then `Cc1cc2cc(N3Cc4ccc(OC5CCCC5)cc4C3=O)ccc2n1C` [Example 123938], with 1.2.

For `CCOC1CS(=O)(=O)c2cc(N3Cc4ccc(OC)cc4C3=O)ccc21` (centres unmarked) [Example 124031], the “Fold Increase” value was 1.106. Regarding `O=C1c2cc(Br)ccc2CN1c1ccc2ncccc2c1` [Example 124033], the EC50 amounted to 0.225 µM and the “Fold Increase” value stood at 1.795. In the case of `CC(=O)Nc1ccc2c(c1)C(=O)N(c1ccc3c(c1)cc(C)n3C)C2` [Example 124034], the midpoint of the response, the EC50, lay at 0.44 µM and the “Fold Increase” value is given as 1.494. Consider `CCCCOc1ccc2c(c1)C(=O)N(c1ccc3c(c1)cc(C)n3C)C2` [Example 124035], for which the “Fold Increase” value is 1.118. On to `COc1cc2c(cc1OC)C(=O)N(c1ccc3c(c1)cc(C)n3C)C2` [Example 124036], for which the midpoint of the response, the EC50, lay at 1.64 µM and the “Fold Increase” value was 1.34. On to `COc1ccc2c(c1)C(=O)N(c1ccc3c(N(C)C)ccnc3c1)C2` [Example 124037], for which the EC50 is 5.97 µM and the “Fold Increase” value came to 1.377.

With `COc1ccc2c(c1)C(=O)N(c1ccc3c(C)ccnc3c1)C2` [Example 124038], the EC50 was 0.026 µM and the “Fold Increase” value came to 1.509. The like results for `Cn1ccc2ccc(N3Cc4ccc(O)cc4C3=O)cc21` [Example 124039] were, in that order, 0.52 µM and 1.893. As to `Cc1cc2cc(N3Cc4ccc(S(C)(=O)=O)cc4C3=O)ccc2n1C` [Example 124166], the “Fold Increase” value was found to be 1.227. Regarding `CCOc1ccc2c(c1)C(=O)N(c1ccc3ccn(C)c3c1)C2` [Example 124167], the concentration giving a half-maximal response (EC50) turned out to be 0.069 µM and the “Fold Increase” value turned out to be 1.759. As to `Cn1ccc2ccc(N3Cc4ccc(S(C)(=O)=O)cc4C3=O)cc21` [Example 124168], the “Fold Increase” value turned out to be 1.462. On to `CCc1ccc2c(c1)C(=O)N(c1ccc3ccn(C)c3c1)C2` [Example 124169], for which a half-maximal response (EC50) required 0.152 µM and the “Fold Increase” value is 1.673.

As for `COc1ccc2c(c1)C(=O)N(c1ccc3ccc(O)nc3c1)C2` [Example 124170], the “Fold Increase” value came out at 1.102.

For the compound `CCCOc1ccc2c(c1)C(=O)N(c1ccc3ccn(C)c3c1)C2` [Example 124325], the EC50 is 0.145 µM and the “Fold Increase” value came out at 1.69. For `CCc1cc2cc(N3Cc4ccc(OC)cc4C3=O)ccc2n1C` [Example 124327] the same measures were 0.56 µM and 1.361. For `COCc1cc2cc(N3Cc4ccc(OC)cc4C3=O)ccc2n1C` [Example 124328], the “Fold Increase” value amounted to 1.305.

`CCCc1ccc2c(c1)C(=O)N(c1ccc3ccn(C)c3c1)C2` [Example 124428]: the response was half-maximal at 0.151 µM (EC50) and the “Fold Increase” value is reported as 1.692. For `COc1ccc2c(c1)C(=O)N(c1ccc3ccc(C)nc3c1)C2` [Example 124430] the same measures were 0.046 µM and 1.411.

With `Cn1ccc2ccc(N3Cc4ccc(N5CCOCC5)cc4C3=O)cc21` [Example 124539], the “Fold Increase” value worked out at 1.652. The same measure, in the same setting: as for `CN1CCN(c2ccc3c(c2)C(=O)N(c2ccc4ccn(C)c4c2)C3)CC1` [Example 124649], the figure is 1.119. Turning to `Cn1ccc2ccc(N3Cc4ccc(N5CCCCC5)cc4C3=O)cc21` [Example 124650], a half-maximal effect (EC50) was put at 0.096 µM and the “Fold Increase” value is given as 1.684. Take `COc1ccc2c(c1)C(=O)N(c1ccc3c(c1)cc1n3CCC1)C2` [Example 124651]: the EC50 was 0.116 µM and the “Fold Increase” value came out at 1.452. The like results for `O=C1c2cc(N3CCCC3)ccc2CN1c1ccc2ncccc2c1` [Example 124770] were, in that order, 0.024 µM and 1.948. In the case of `COc1ccc2c(c1)C(=O)N(c1ccc3c(c1)cc(CN(C)C)n3C)C2` [Example 124772], the “Fold Increase” value came to 1.148. Same read-out and setting: then `COc1ccc2c(c1)C(=O)N(c1ccc3c(c1)cc(C(C)C)n3C)C2` [Example 124773], with 1.255. For the compound `COc1ccc2c(c1)C(=O)N(c1ccc3cc4n(c3c1)CCC4)C2` [Example 124774], a half-maximal effect (EC50) was put at 0.327 µM and the “Fold Increase” value stood at 1.369. As to `Cn1ccc2ccc(N3Cc4ccc(NC(=O)c5ccccc5)cc4C3=O)cc21` [Example 124775], the “Fold Increase” value was determined as 1.216.

For the compound `CC(C)C(=O)Nc1ccc2c(c1)C(=O)N(c1ccc3ccn(C)c3c1)C2` [Example 124776], the “Fold Increase” value is 2.069. Turning to `Cn1ccc2ccc(N3Cc4ccc(OC5CCCC5)cc4C3=O)cc21` [Example 124860], the EC50 was 0.135 µM and the “Fold Increase” value amounted to 1.582. Regarding `Cc1cc2ccc(N3Cc4ccc(Cl)cc4C3=O)cc2n1C` [Example 124861], the “Fold Increase” value was determined as 1.268. Same read-out and setting: then `Cn1ccc2cc(N3Cc4ccc(NC(=O)c5ccccc5)cc4C3=O)ccc21` [Example 124862], with 1.07.

Turning to `CC(C)C(=O)Nc1ccc2c(c1)C(=O)N(c1ccc3c(ccn3C)c1)C2` [Example 124863], the “Fold Increase” value was 1.251. Regarding `CC(C)C(=O)Nc1ccc2c(c1)C(=O)N(c1ccc3c(ccn3C)c1)C2` [Example 124864], the EC50 is 0.277 µM and the “Fold Increase” value came to 1.519. `Cn1ccc2ccc(N3Cc4ccc(NS(C)(=O)=O)cc4C3=O)cc21` [Example 124977]: the “Fold Increase” value worked out at 1.061.

Regarding `Cc1cc2ccc(N3Cc4ccc(-c5ccccc5)cc4C3=O)cc2n1C` [Example 124978], the “Fold Increase” value worked out at 1.115. Still for that read-out and setting: then `COc1ccc2c(c1)C(=O)N(c1ccc3c(c1)cc(-c1ccccc1)n3C)C2` [Example 124979], with 1.378; and `Cn1ccc2cc(N3Cc4ccc(NS(C)(=O)=O)cc4C3=O)ccc21` [Example 124980], with 1.534. On the same count and under the same terms, then `Cn1ccc2ccc(N3Cc4ccc(NC=O)cc4C3=O)cc21` [Example 124981], with 1.638.
